In one assay the test system is B16-F10 melanoma cells. Description: Topical calcipotriene plus IP DMXAA against subcutaneous B16-F10 melanoma in mice. It counts as in vivo, mouse (wild-type C57BL/6). As to conditions: for T cell (CD3+CD19−) infiltrate within the treated melanoma tumors / proliferation (Ki67+) of CD4+ and CD8+ tumor infiltrating T lymphocytes (melanoma tumors): flow cytometry at harvest; for cutaneous melanoma growth (tumor volume over time): three applications, topical calcipotriene 40 nmol, IP DMXAA 400 μg, compared to EtOH plus saline, p=0.019 for the combination. As to the method:
(2A) Schematic diagram of the experimental protocol used to determine the efficacy of calcipotriene plus DMXAA as a localized immunotherapy for melanoma. B16-F10 melanoma cells are implanted subcutaneously into the flanks of wild-type C57BL/6 mice. When tumors reached 5 mm in diameter (day 14), the following treatments were applied three times: (a) 40 nmol calcipotriene in 20 microliters of 100% EtOH followed by IP injection of 400 μg DMXAA in 100 μl saline, (b) 40nmol calcipotriene in 20 microliters of 100% EtOH followed by IP injection of 100 μl saline, (c) 20 microliters of 100% EtOH followed by IP injection of 400 μg DMXAA in 100 μl saline, and (d) 20 microliter 100% EtOH followed by IP injection of 100 μl saline.
Melanoma Cells (B16-F10, ATCC, Manassas, VA) were injected subcutaneously into flanks of mice at 2×10^5 cells per 100 μl of 1:1 ratio of DMEM (Corning) at day 0. Flank regions of recipient mice were shaved prior to cancer cell injection. Topical treatment with calcipotriene or EtOH together with intraperitoneal (IP) injection of DMXAA (murine STING agonist, 5,6-Dimethylxanthenone-4-acetic Acid, ASA404, or Vadimezan) or normal saline were initiated when tumor sizes reached 5 mm in diameter. Mice were divided into 4 groups and were treated topically with either calcipotriene (40 nmol) or ethanol (EtOH) as carrier directly on the tumor sites. Following treatment of either calcipotriene or EtOH (control), mice were injected IP with either 400 μg DMXAA in 100 μl normal saline or normal saline alone (control). Calcipotriene/EtOH and DMXAA/saline treatments were re-applied two more times (FIG. 2A). Animals were monitored daily and tumors measured over time to determine the impact of treatments on melanoma growth. At harvest, tumors were weighed, and the tumor infiltrating T cells were profiled using flow cytometry.

Assay [1] concerns PyMTtg primary breast cancer cells. In words: Topical treatment of subcutaneous PyMTtg breast cancer tumors in mice. Format: in vivo, mouse (wild-type C57BL/6). As to conditions: two topical applications; calcipotriene 80 nmol, imiquimod 5% cream; compared to EtOH plus control cream; p=0.011 for the combination.
Excerpt: PyMTtg primary breast cancer cells are implanted subcutaneously into the inguinal regions of wild-type C57BL/6 mice. When tumors reached 5 mm in diameter (day 13), the following topical treatments applied to the tumor sites twice: (a) 80nmol calcipotriene in 20 microliters of 100% EtOH followed by 5% imiquimod cream, (b) 80nmol calcipotriene in 20 microliter 100% EtOH followed by moisturizing (control) cream, (c) 20 microliter 100% EtOH followed by 5% imiquimod cream, and (d) 20 microliter 100% EtOH followed by moisturizing (control) cream.
Breast cancer cells were obtained from PyMTtg mice that develop spontaneous breast cancer resembling luminal type of breast cancer in humans^12. Breast cancers of PyMTtg mice were harvested before the tumors reached 2 cm in diameter. Cancers were excised and dissociated into single cell suspension. Breast cancer cells were re-suspended at a concentration of 1×10^6 cells per 100 μl of 1:1 ratio of RPMI and Matrigel Membrane Matrix (Corning). Inguinal regions of recipient mice were shaved prior to cancer cell injection. 1×10^6 cells were injected subcutaneously at day 0. Topical treatments were applied when tumor sizes reached 5 mm in diameter. […] Animals were monitored daily and tumors measured over time to determine the impact of topical treatments on breast cancer growth. […]

As for `Cc1ccc2c(=O)c3cccc(CC(=O)O)c3oc2c1C` [DMXAA, 5,6-Dimethylxanthenone-4-acetic Acid], in the assay with B16-F10 melanoma cells, the “T cell (CD3+CD19−) infiltrate within the treated melanoma tumors” value is recorded as “absent”; the “proliferation (Ki67+) of CD4+ and CD8+ tumor infiltrating T lymphocytes (melanoma tumors)” value was “absent”; the “cutaneous melanoma growth (tumor volume over time)” value was “did not show a significant impact on melanoma development”.

Consider `C=C1/C(=C\C=C2/CCC[C@]3(C)[C@@H]([C@H](C)/C=C/[C@@H](O)C4CC4)CC[C@@H]23)C[C@@H](O)C[C@@H]1O` [calcipotriene], for which the “cutaneous breast tumor growth (tumor volume over time)” value in assay [1] is listed as “did not show a significant impact on breast cancer growth”. Further, in the assay with B16-F10 melanoma cells, the “T cell (CD3+CD19−) infiltrate within the treated melanoma tumors” value is recorded as “absent”; the “proliferation (Ki67+) of CD4+ and CD8+ tumor infiltrating T lymphocytes (melanoma tumors)” value is “absent”; the “cutaneous melanoma growth (tumor volume over time)” value was “showed efficacy in inhibiting melanoma growth”.

`CC(C)Cn1cnc2c(N)nc3ccccc3c21` [imiquimod]: in assay [1], the “cutaneous breast tumor growth (tumor volume over time)” value is reported as “did not show a significant impact on breast cancer growth”.
